{"source": "paper PMC6401853", "about": "“Fabrication of Carbohydrate Chips Based on Polydopamine for Real-Time Determination of Carbohydrate–Lectin Interactions by QCM Biosensor” (Polymers, 2018)", "target": "wheat germ agglutinin (WGA)", "assay": "QCM biosensor kinetics, lectin over immobilized amino-GlcNAc derivative on polydopamine chip, […] fit", "type": "binding", "data": [{"smiles": "CC(=O)N[C@H]1C(O)O[C@H](CO)[C@@H](O)[C@@H]1O", "note": "(stereo partly shown) [N-Acetylglucosamine]", "values": [{"measurement": "Kd", "result": 47.2, "unit": "nM"}]}]}
